Assay: CLEAR OUTCOMES trial: adverse events and safety laboratory findings
Type: in vivo, human
Conditions: for Any muscle disorder, %: prespecified adverse event of special interest
From the text: The CLEAR OUTCOMES trial was a randomized, placebo-controlled, double-blind trial that enrolled patients at 1250 sites in 32 countries. An independent Data Monitoring Committee reviewed safety and efficacy data during the trial. Patients 18 to 85 years of age were eligible for enrollment if they met either of two criteria for increased cardiovascular risk, a prior cardiovascular event (secondary prevention) or clinical features that placed them at high risk for a cardiovascular event (primary prevention). (Nicholls […], Bays H E, et al. Rationale and design of the CLEAR-outcomes trial: Evaluating the effect of bempedoic acid on cardiovascular events in patients with statin intolerance. Am Heart J. 2021 May; 235: 104-112) All patients provided written informed consent. Patients had to report statin intolerance due to an adverse effect that started or increased during statin therapy and resolved or improved after statin therapy was discontinued. Patients could be enrolled if they tolerated a very low average daily statin dose (e.g., an average daily dose of rosuvastatin <5 mg, atorvastatin <10 mg, simvastatin <10 mg, lovastatin <20 mg, pravastatin <40 mg, fluvastatin <40 mg, or pitavastatin <2 mg). Other lipid-lowering therapies were permitted, including ezetimibe, niacin, bile acid resins, fibrates, and/or proprotein convertase subtilisin kexin type 9 (PCSK9) inhibitors. Full inclusion and exclusion criteria are provided in Nicholls et al. (Am Heart J. 2021). Eligible patients entered a 4-week run-in period during which patients were treated with single-blind placebo. If patients were intolerant to placebo treatment or if adherence was <80% by tablet count, they were not eligible for randomization. […] Beginning 6 months after enrollment, the central laboratory notified the investigator if the patient's LDL-cholesterol level was ≥25% higher than baseline. These patients were counseled on healthy dietary guidelines and reminded to take all lipid-regulating medications. If repeat testing confirmed that LDL-cholesterol value met the threshold criteria, the provider could adjust the lipid-lowering treatment regimen per standard of care and local guidelines.

[1] = N = 7001, listed as bempedoic acid
[2] = at any visit, repeated and confirmed, N = 7001

CC(C)(CCCCCC(O)CCCCCC(C)(C)C(=O)O)C(=O)O [Bempedoic Acid, Bempedoic acid]
Adverse event leading to drug discontinuation, % (180 mg oral daily, N = 7001): (11.0) % | Any treatment emergent adverse event, % (180 mg oral daily, N = 7001): (86.3) % | Serious treatment emergent adverse event, % (180 mg oral daily, N = 7001): (25.4) % | Adjudicated tendon rupture, % (N = 7001): (1.2) % | Atrial fibrillation, % (N = 7001): (3.3) % | Cholelithiasis, % (N = 7001): (2.2) % | Discontinuation of treatment due to myalgia, % (N = 7001): (1.8) % | Elevated hepatic enzymes, % (N = 7001): (4.5) % | Gout, % (N = 7001): (3.1) % | Hyperuricemia, % (N = 7001): (10.9) % | Hypoglycemia, % (N = 7001): (4.3) % | Malignancies, % (N = 7001): (4.7) % | Metabolic acidosis, % (N = 7001): (0.2) % | Myalgia, % (N = 7001): (5.6) % | Neurocognitive disorders, % (N = 7001): (0.8) % | Renal impairment, % (N = 7001): (11.5) % | Tendinopathies, % (N = 7001): (1.7) % | Cholelithiasis, % [1]: 2.2% | Elevated hepatic enzymes, % [1]: 4.5% | Gout, % [1]: 3.1% | Hyperuricemia, % [1]: 10.9% | Renal impairment, % [1]: 11.5% | Change from baseline in creatinine levels (after 6 months, mean): 0.05 mg/dL | Change from baseline in uric acid levels (after 6 months, mean): 0.76 mg/dL | Change from baseline in glycated hemoglobin level (%) (after 12 months, not a prespecified safety measure): 0.04% | Creatine kinase levels >5x ULN (repeated and confirmed), % (at any visit, N = 7001): (0.1) % | Creatine kinase levels >5x ULN (single occurrence), % (at any visit, N = 7001): (0.6) % | Alanine aminotransferase level >3 times ULN, % [2]: (1.2) % | Aspartate aminotransferase level >3 times ULN, % [2]: (1.1) % | tolerability of treatment (discontinuation rates similar to placebo): well tolerated | Worsening hyperglycemia, % (in patients with diabetes at baseline): (22.7) % | Mean changes in creatinine and uric acid from baseline compared with placebo (in vivo): larger | New onset diabetes in patients with normoglycemia at baseline, % (in vivo): (5.5) % | New onset diabetes in patients with pre-diabetes at baseline, % (in vivo): (19.5) % | New onset diabetes in patients without diabetes at baseline, % (in vivo): (16.1) % | Rates of liver transaminase elevations >3×ULN compared with placebo (in vivo): more frequent | Any muscle disorder, % (N = 7001): (15.0) % | Any muscle disorder, % [1]: 15.0% | between group differences in overall rates of adverse events, serious adverse events, or adverse events leading to drug discontinuation (vs placebo): not clinically meaningful between group differences | other prespecified adverse events of special interest (diabetes, hypoglycemia, metabolic acidosis, neurocognitive disorders, atrial fibrillation, tendinopathies, malignancies) (vs placebo): no differences
